{
  "source": "paper PMC5312080",
  "about": "(mBio, 2017)",
  "note": "“And” between values parts separate entries of the source, which are not always exact repeats. Equal entries are not always repeated.",
  "data": [
    {"test_system": "clinical drug-susceptible and drug-resistant M. tuberculosis strains", "assay": "microbe, parasite or virus in culture", "assay_type": "cell-based", "settings": "Mycobacterium tuberculosis", "units": {"MIC": "µg/mL"}, "values": [
      {"smiles": "COc1ccc(-c2cc(NC(=O)c3ccc(F)cc3Cl)ccc2OC)cc1", "note": "[DG70, 2-chloro-N-(4',6-dimethoxy-[1,1'-biphenyl]-3-yl)-4-fluorobenzamide]", "MIC": "1.2 to 9.6"}
    ]},
    {"test_system": "clinical drug-susceptible and drug-resistant M. tuberculosis strains", "assay": "microbe, parasite or virus in culture", "assay_type": "cell-based", "settings": "Mycobacterium tuberculosis, H37RV", "units": {"MIC90": "µg/mL"}, "values": [
      {"smiles": "NNC(=O)c1ccncc1", "note": "[INH, isoniazid]", "MIC90": 0.05}
    ]},
    {"test_system": "clinical drug-susceptible and drug-resistant M. tuberculosis strains", "assay": "microbe, parasite or virus in culture", "assay_type": "cell-based", "settings": "Mycobacterium tuberculosis, H37RV; read-out: MIC90", "units": {"MIC90": "µg/mL"}, "values": [
      {"smiles": "COc1ccc(-c2cc(NC(=O)c3ccc(F)cc3Cl)ccc2OC)cc1", "note": "[DG70, 2-chloro-N-(4',6-dimethoxy-[1,1'-biphenyl]-3-yl)-4-fluorobenzamide]", "MIC90": 4.8}
    ]},
    {"test_system": "DG70-resistant mutants of H37Rv", "assay": "not given", "assay_type": "cell-based, Mycobacterium tuberculosis", "settings": "not given", "units": {"MIC in Mtb P3 V20A": "µg/mL", "MIC in Mtb P7 F118L": "µg/mL"}, "values": [
      {"smiles": "COc1ccc(-c2cc(NC(=O)c3ccc(F)cc3Cl)ccc2OC)cc1", "note": "[DG70, 2-chloro-N-(4',6-dimethoxy-[1,1'-biphenyl]-3-yl)-4-fluorobenzamide]", "DG70 MIC90": ">80 µg/mL and 40 µg/mL", "MIC in Mtb P3 V20A": ">80", "MIC in Mtb P7 F118L": 40},
      {"smiles": "COc1ccc(-c2cccc(NC(=O)c3ccc(F)cc3Cl)c2)cc1", "note": "[JSF-2907]", "MIC in Mtb P3 V20A": ">80", "MIC in Mtb P7 F118L": ">80"},
      {"smiles": "COc1ccc(-c2cc(NC(=O)c3ccccc3Cl)ccc2OC)cc1", "note": "[JSF-2908]", "MIC in Mtb P3 V20A": ">40", "MIC in Mtb P7 F118L": ">40"},
      {"smiles": "COc1ccc(-c2cc(NC(=O)c3ccc(F)cc3)ccc2OC)cc1", "note": "[JSF-2909]", "MIC in Mtb P3 V20A": ">80", "MIC in Mtb P7 F118L": ">80"},
      {"smiles": "O=C(Nc1cccc(-c2ccccc2)c1)c1ccc(F)cc1Cl", "note": "[JSF-2910]", "MIC in Mtb P3 V20A": ">40", "MIC in Mtb P7 F118L": ">40"},
      {"smiles": "COc1ccc(-c2cc(NC(=O)c3ccccc3)ccc2OC)cc1", "note": "[JSF-2912]", "MIC in Mtb P3 V20A": ">40", "MIC in Mtb P7 F118L": ">40"},
      {"smiles": "COc1ccc(NC(=O)c2ccc(F)cc2Cl)cc1", "note": "[JSF-2926]", "MIC in Mtb P3 V20A": 40, "MIC in Mtb P7 F118L": 40},
      {"smiles": "COc1ccc(-c2cc(N(C)C(=O)c3ccc(F)cc3Cl)ccc2OC)cc1", "note": "[JSF-2949]", "MIC in Mtb P3 V20A": ">40", "MIC in Mtb P7 F118L": ">40"},
      {"smiles": "O=C(Nc1ccc(O)c(-c2ccc(O)cc2)c1)c1ccc(F)cc1Cl", "note": "[JSF-2950]", "MIC in Mtb P3 V20A": ">40", "MIC in Mtb P7 F118L": ">40"},
      {"smiles": "COc1ccc(-c2cc(NCc3ccc(F)cc3Cl)ccc2OC)cc1", "note": "[JSF-2951]", "MIC in Mtb P3 V20A": ">80", "MIC in Mtb P7 F118L": ">80"},
      {"smiles": "COc1ccc(NC(=O)c2ccc(F)cc2Cl)cc1-c1ccccc1", "note": "[JSF-2971]", "MIC in Mtb P3 V20A": 40, "MIC in Mtb P7 F118L": 40}
    ]}
  ]
}
